Measured values taken from PMC12257544, “Fluorescent Isostere (Fluostere) of the Carboxylate: Design of hDHODH Fluorescent Inhibitors as Proof of Concept” (Journal of Medicinal Chemistry, 2025).
Values joined by “and” are separate entries in the source; they are usually repeats but may differ in a detail not shown here. Identical values can stand only once.

Tests used:
[1] = Photophysical characterization (absorption, emission, QY, lifetime); type: physicochemical; settings: for Lifetime / QY (luminescence quantum yield) / Stokes shift / λabs / λem: in ACN
Procedure: UV–Vis absorption spectra were recorded on a Cary60 spectrometer. Photoemission spectra, luminescence lifetimes, and quantum yields were acquired with a HORIBA Jobin Yvon IBH Fluorolog-TCSPC spectrofluorometer equipped with a Quanta-φ integrating sphere. […] Emission-decay data were collected in 2048 channels to 10000 counts in the peak channel. IRF was measures using colloidal silica suspension in H2O to scatter light. Data were analyzed with the software DAS6 (TCSPC decay-analysis software) using a nonlinear least-squares method to fit of the decay to a sum of exponentials. The value of χ^2, residuals and the autocorrelation function (Durbin-Watson parameter) were used to determine the quality of the fit. For measurements in the presence of hDHODH, 11a was incubated, at 1 μM concentration in TRIS Buffer 0.1 mM (pH 8) with 0.1% DMSO, alone or with different concentrations of recombinant protein ranging from 31.5 to 504 nM concentration. After 5 min incubation UV–Vis absorption spectra were recorded on a Cary60 spectrophotometer and photoemission spectra were acquired with a HORIBA Jobin Yvon IBH Fluorolog-TCSPC spectrofluorometer with excitation λ of 366 nm and maximum of emission at 500 nm; a.u. data were analyzed with GraphPad Prism using One Site – Specific Binding equation.

[2] = Experimental pKa; type: physicochemical
[3] = molecular target: hDHODH enzyme GST-tagged (Homo sapiens, UniProt Q02127); assay: hDHODH inhibition assay (DCIP reduction)
Procedure: The enzyme (around 60 nM) was preincubated for 5 min at 37 °C in Tris-buffer solution (pH 8.0) with coenzyme Q10 (100 μM), tested compounds at different concentrations (final DMSO concentration 0.1% v/v), and DCIP (50 μM). The reaction was initiated by addition of DHO (500 μM) and the reduction was monitored at λ = 650 nm. […] Values are means ± SE of three independent experiments.

[4] = parameters: method as in doi:10.1021/cr00002a004; settings: substituent in position 3; cited from earlier work
[5] = system: THP-1 cells; assay: Co-localization competition assay with Bay2402234 (Manders coefficient); type: cell-based, human; settings: THP-1 cells, 10 μM, 3 h
Procedure: Colocalization between hDHODH inhibitors and mitochondria was quantified using Manders coefficient (Figure D).
THP-1 cells were incubated for 3 h with hDHODHi 11a and Bay240223410 at 10 μM, either alone or in combination. After incubation, the cells were washed and stained with Red-MitoTracker CMXRos (Thermo Fisher, Carlsbad, CA, USA) at a concentration of 100 nM for 30 min at 37 °C. Cells were imaged with a Leica TCS SP8 confocal system (Leica Microsystems) equipped with 4 excitation lasers (405 Diode, Argon, DPSS561, HeNe633). Images were acquired with a HCX PL APO 63×/1.4 NA oil-immersion objective with a resolution of 81 nm × 81 nm and were processed and analyzed with ImageJ software (Rasband, W.S., U.S. National Institutes of Health, Bethesda, […]). In particular, colocalization was analyzed with JACoP plugin and Manders’ coefficient was calculated

Chain of hDHODH enzyme GST-tagged (Q02127 whole entry): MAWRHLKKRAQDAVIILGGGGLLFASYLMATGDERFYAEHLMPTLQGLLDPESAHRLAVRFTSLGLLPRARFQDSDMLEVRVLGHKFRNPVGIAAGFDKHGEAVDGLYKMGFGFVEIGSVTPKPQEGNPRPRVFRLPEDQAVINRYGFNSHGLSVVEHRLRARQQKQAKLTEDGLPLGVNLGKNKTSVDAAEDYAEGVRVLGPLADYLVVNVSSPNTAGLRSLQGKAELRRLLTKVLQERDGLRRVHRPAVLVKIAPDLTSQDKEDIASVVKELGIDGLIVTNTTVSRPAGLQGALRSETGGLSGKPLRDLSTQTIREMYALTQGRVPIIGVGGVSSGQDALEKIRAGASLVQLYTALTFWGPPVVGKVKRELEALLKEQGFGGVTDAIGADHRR

Compound | Lifetime [1] [ns] | QY (luminescence quantum yield) [1] | Stokes shift [1] [cm^–1] | λabs [1] [nm] | λem [1] | pKa [2] | IC50 [3] [µM] | σ p (Hammett substituent constant) [4] | emission in the solid state [1] | fluorescence at the wavelength specific for 11a [5]
Oc1nn2ccccc2c1/C=C/c1cc(F)c(-c2ccccc2)c(F)c1F [Compound 11b] | <1 | 0.08 | 3531 | 450 | 542 nm and 535 nm | – | – | – | – | –
CCOC(=O)c1c(O)nn2ccccc12 [Compound 2, Ethyl 2-hydroxypyrazolo[1,5-a]pyridine-3-carboxylate] | 7 | 0.42 | 5139 | 313 | 373 nm | 5.39 | – | – | – | –
COc1nn2ccccc2c1/C=C/c1ccc(SC)cc1 [Compound 5b, (E)-2-methoxy-3-(4-(methylthio)styryl)pyrazolo[1,5-a]pyridine] | 3.5 | <0.01 | 8964 | 350 | 510 nm | – | – | – | – | –
Oc1nn2ccccc2c1-c1ccc2cc(-c3ccccc3)cnc2c1 [Compound 13, 3-(3-Phenylquinolin-7-yl)pyrazolo[1,5-a]pyridin-2-ol] | 3.7 | 0.74 | 5288 | 370 | 460 nm | – | 33 | – | – | –
COc1nn2c(Cl)cccc2c1-c1ccc2ncccc2c1 [Compound 9a, 6-(7-Chloro-2-methoxypyrazolo[1,5-a]pyridin-3-yl)quinoline] | 5.1 | <0.01 | 6832 | 350 | – | – | – | – | – | –
COc1nn2ccccc2c1NS(C)(=O)=O [Compound 3b, N-(2-methoxypyrazolo[1,5-a]pyridin-3-yl)methanesulfonamide] | 2 | <0.01 | 10379 | 315 | 468 nm | – | – | 0.03 | – | –
CCOC(=O)c1c(OC)nn2ccccc12 [Compound 2a, Ethyl 2-methoxypyrazolo[1,5-a]pyridine-3-carboxylate] | 9 | 0.45 | 5942 | 310 | 380 nm | – | – | – | – | –
COc1nn2c(N(C)C)cccc2c1-c1ccc2ncccc2c1 [Compound 9b, 2-Methoxy-N,N-dimethyl-3-(quinolin-6-yl)pyrazolo[1,5-a]pyridin-7-amine] | 2.7 | 0.10 | 9508 | 362 | 552 nm | – | – | – | – | –
COc1nn2ccccc2c1NC(C)=O [Compound 3a, N-(2-methoxypyrazolo[1,5-a]pyridine-3-yl)acetamide] | – | <0.01 | 10169 | 312 | 457 nm | – | – | 0.00 | – | –
COc1nn2ccccc2c1-c1ccc2ccccc2n1 [Compound 7a, 2-(2-Methoxypyrazolo[1,5-a]pyridin-3-yl)quinoline] | 2.8 | 0.52 | 3330 | 370 | 422 nm | – | – | – | – | –
COc1nn2ccccc2c1/C=C/c1ccc(S(C)(=O)=O)cc1 [Compound 5c, (E)-2-methoxy-3-(4-(methylsulfonyl)styryl)pyrazolo[1,5-a]pyridine] | 3.5 | <0.01 | 5750 | 370 | 470 nm | – | – | – | – | –
COc1nn2ccccc2c1/C=C/c1ccc([N+](=O)[O-])cc1 [Compound 5e, (E)-2-methoxy-3-(4-nitrostyryl) Pyrazolo[1,5-a]pyridine] | <0.1 | <0.01 | 8368 | 426 | 662 nm | – | – | – | – | –
O=[N+]([O-])c1c(O)nn2ccccc12 [Compound 3, 3-Nitropyrazolo[1,5-a]pyridin-2-ol] | – | – | – | 361 | n.e. ^a | – | – | 0.78 | – | –
COc1nn2ccccc2c1/C=C/c1ccc(C#N)cc1 [Compound 5d, (E)-4-(2-(2-methoxypyrazolo[1,5-a]pyridin-3-yl)vinyl)benzonitrile] | 3.5 | <0.01 | 5178 | 378 | 470 nm | – | – | – | – | –
COC(=O)/C(C#N)=C/c1c(OC)nn2ccccc12 [Compound 4b, Methyl (e)-2-cyano-3-(2-methoxypyrazolo[1,5-a]pyridin-3-yl)acrylate] | – | – | – | 395 | n.e. | – | – | – | yellow light | –
Cn1c(=O)cc2ccccn21 [Compound 1b, 1-Methylpyrazolo[1,5-a]pyridin-2(1H)-one] | – | – | – | 335 | 465 nm | – | – | – | – | –
Oc1nn2ccccc2c1-c1ccc2cc(-c3ccccc3)ccc2n1 [Compound 12, 3-(6-Phenylquinolin-2-yl)pyrazolo[1,5-a]pyridin-2-ol] | 2.3 | <0.01 | 2385 | 390 | 430 nm | – | 16 | – | – | –
COc1cc2ccccn2n1 [Compound 1a, 2-Methoxypyrazolo[1,5-a]pyridine] | – | – | – | 305 | 400 nm | – | – | – | – | –
COc1nn2ccccc2c1-c1ccc2ncccc2c1 [Compound 7c, 6-(2-Methoxypyrazolo[1,5-a]pyridin-3-yl)quinoline] | 5.3 | 0.24 | 6832 | 350 | 460 nm | – | – | – | – | –
CCOC(=O)c1c(=O)n(Cc2ccccc2)n2ccccc12 [Compound 2d, Ethyl 1-benzyl-2-oxo-1,2-dihydropyrazolo[1,5-a]pyridine-3-carboxylate] | 12 | 0.30 | 6414 | 348 | 448 nm | – | – | – | – | –
CCn1c(CO)nn(-c2cc(O[C@@H](C)C(F)(F)F)c(C(=O)Nc3c(F)cccc3Cl)cc2F)c1=O [Bay2402234, reference compound] | – | – | – | – | – | – | – | – | – | no detectable fluorescence
COc1nn2ccccc2c1-c1ccc2cccnc2c1 [Compound 7b, 7-(2-Methoxypyrazolo[1,5-a]pyridin-3-yl)quinoline] | 5.5 | 0.42 | 5868 | 356 | 450 nm | – | – | – | – | –
CCOC(=O)c1c(OCc2ccccc2)nn2ccccc12 [Compound 2c, Ethyl 2-(Benzyloxy) Pyrazolo[1,5-a]pyridine-3-carboxylate] | 9 | 0.43 | 5942 | 310 | 380 nm | – | – | – | – | –
COc1nn2ccccc2c1C=C(C#N)C#N [Compound 4a, 2-((2-Methoxypyrazolo[1,5-a]pyridin-3-yl)methylene)] | – | – | – | 393 | n.e. | – | – | – | yellow light | –
CCOC(=O)c1c(O)nn2c(N(C)C)cccc12 [Compound 8a, Ethyl 7-(Dimethylamino)-2-hydroxypyrazolo[1,5-a]pyridine-3-carboxylate] | 3.7 | 0.06 | 5255 | 338 | 411 nm | – | – | – | – | –
COc1nn2ccccc2c1-c1ccc2ccccc2c1 [Compound 6, 2-Methoxy-3-(naphthalen-2-yl)pyrazolo[1,5-a]pyridine] | 4.3 | 0.13 | 7480 | 345 | 465 nm | – | – | – | – | –
COc1nn2ccccc2c1/C=C/c1ccccc1 [Compound 5a, (E)-2-methoxy-3-styrylpyrazolo[1,5-a]pyridine] | 3.5 | <0.01 | 9851 | 335 | 500 nm | – | – | – | – | –
CCOC(=O)c1c(=O)n(C)n2ccccc12 [Compound 2b, Ethyl 1-methyl-2-oxo-1,2-dihydropyrazolo[1,5-a]pyridine-3-carboxylate] | 11 | 0.26 | 6514 | 345 | 445 nm | – | – | – | – | –
